The text below walks through data of patent publication US20230416205A1, “COMPOUNDS, COMPOSITIONS, AND METHODS” (Denali Therapeutics Inc, priority 2020, published 2023).

This experiment concerns NLRP3. The experiment in a line: IL-1β secretion assay in PMA-differentiated, LPS/nigericin-stimulated THP-1 cells (384-well, ELISA read-out). The format is cell-based, human. As for the experimental part: Compounds as provided herein were tested in the following assay. Cell culture medium employed contained RPMI 1640 medium (89%), FBS (10%), Pen/Strep (1%), and 2-mercaptoethanol (0.05 mM). Freezing medium was made up of 90% FBS and 10% DMSO. THP-1 cells were removed from the liquid nitrogen and placed into a 37° C. water bath to thaw, until signs of ice dissipated. The cells were then added to 9 mL of warm cell culture medium and centrifuged for 5 minutes at 1000 rpm. The supernatant was discarded, and the cells were resuspended in new cell culture medium. THP-1 cells were then split and cultured in the cell culture medium, being passaged every 2-3 days with the cell density will be maintained between 5×10^5 and 1.5×10^6 viable cells/mL.
To freeze, cells were resuspended with fresh freezing medium, adjusting the cell density to 5×10^6 cells/mL. The cell suspension was partitioned into 1 mL aliquots per vial, and the vials were transferred to a −80° C. freezer. After one day at −80° C., the cell vials were transferred to liquid nitrogen freezer for storage.
PMA was dissolved in DMSO to make a stock solution at 5 mg/mL and stored in 10 μl aliquots at −20° C. for single use. PMA is added to normal growth medium. LPS was diluted with 1 mL of water solution to provide a 1 mg/mL stock solution and stored in 15 μl aliquots at −20° C. for single use. Nigericin is diluted in ice cold 100% ethanol to 5 mg/mL (6.7 mM) and stored in 75 μL aliquots at −20° C. for single use. Serum-free media contains RPMI 1640 medium (99%), Pen/Strep (1%), and 2-mercaptoethanol (0.05 mM). The two control conditions used to qualify and normalize test compound dose-response curves were as follows: High Control=25 ng/mL LPS, 5 μM Nigericin, 0.5% DMSO, Low Control=25 ng/mL, LPS, 0.5% DMSO.
THP-1 cells were diluted to provide a suspension at a concentration of 1.0×10^6 cells/mL with the total volume of suspension required to enable the desired number of assay plates. The growth media was supplemented with PMA (5 ng/mL final concentration) and the cells were incubated at 37° C. under a humidified atmosphere of 5% CO2 for 40 h.
All media was carefully aspirated from each culture flask. The cells were washed carefully with 1×DPBS. The cells were then briefly digested with trypsin LE for 5 minutes at 23° C., and immediately resuspended in cell growth media. After resuspension, the cells were centrifuged at 1000 rpm for 3 minutes and the supernatant was discarded. The cells were resuspended in DPBS and once again centrifuged at 1000 rpm for 5 minutes. The supernatant was discarded and the cell pellet was resuspended in serum-free media supplemented with LPS (25 ng/mL final concentration) to enable the distribution of 30K THP-1 cells within 45 μL of media into each well of 384-well PDL-coated plates. The 384-well plates were then incubated at 37° C. under a humidified atmosphere of 5% CO2 for 2 h. Following this period, test compounds were dispensed by Tecan across the desired concentration range with all wells normalized to a final 0.5% DMSO concentration. The plates were then incubated at 37° C. under a humidified atmosphere of 5% CO2 for 1 h. Following this period, 5 μL of the […] was added to each of the appropriate wells and plates were centrifuged at 1000 rpm for 30 seconds. The plates were the immediately reintroduced to the incubator at 37° C. under a humidified atmosphere of 5% CO2 for 2 h. After this time, 35 μL/well of supernatant was collected and transferred into v-bottom plate and centrifuged at 1000 rpm for 1 minute. These supernatant aliquots were analyzed using an IL-Iβ detection kit as described below. If needed, the test samples could be snap frozen and stored at −80° C. until analyzed.
To prepare each ELISA plate, capture antibody (mAb Mt175) was diluted with PBS to a final concentration of 2 μg/mL and then 20 μL of this solution was added to each well of the ELISA plate. Each plate was allowed to incubate overnight at 4° C.

The mark [1] stands for this setting: Homo sapiens, THP-1, IL-1β secretion, PMA-differentiated THP-1 cells, LPS then nigericin stimulation, ELISA read at 450 nm, read-out: Activity.
[2] abbreviates: Homo sapiens, THP-1, Table 4, IL-1β secretion, LPS/nigericin-stimulated THP-1 cells, read-out: IC50.
[3] abbreviates: Table 4, IL-1β secretion, LPS/nigericin-stimulated THP-1 cells, read-out: IC50.

Structures are written as SMILES. Read-outs that look alike come from different tables or passages of the source.

Regarding `N#Cc1ccc2c(c1)C1(CC1)CN(CC(=O)Nc1ncc(F)cn1)C2=O` [Example 177, 2-(6-cyano-1-oxospiro[3H-isoquinoline-4,1′-cyclopropane]-2-yl)-N-(5-fluoropyrimidin-2-yl)acetamide], the IC50 under setting [1] was below 10000 nM and the IC50 under setting [2] stood at 4410 nM.

With `O=C(CN1CC2(CC2)c2cc(Br)ccc2C1=O)NC1CCN(CC(F)F)CC1` [Example 367, 2-(6-bromo-1-oxospiro[3H-isoquinoline-4,1′-cyclopropane]-2-yl)-N-[1-(2,2-difluoroethyl)piperidin-4-yl]acetamide], under setting [2], the IC50 amounted to 11700 nM.

With `CC1(O)CC(NC(=O)CN2C[C@@]3(C[C@@H]3F)c3cc(C(F)(F)F)ccc3C2=O)C1` (single isomer, unassigned) [Example 328, N-(3-cis-hydroxy-3-methylcyclobutyl)-2-[(2′s,4r)-2′-fluoro-1-oxo-6-(trifluoromethyl)spiro[3H-isoquinoline-4,1′-cyclopropane]-2-yl]acetamide], the IC50 under setting [3] was determined as 67 nM.

On to `C#Cc1ccc2c(c1F)C1(CC1)CN(CC(=O)Nc1ncc(F)cn1)C2=O` [Example 302, 2-(6-ethynyl-5-fluoro-1-oxospiro[3H-isoquinoline-4,1′-cyclopropane]-2-yl)-N-(5-fluoropyrimidin-2-yl)acetamide], for which the IC50 is, setting by setting: under setting [1], below 10000 nM; under setting [2], 539 nM.

Turning to `O=C(CN1CC2(CC2)c2cc(Br)ccc2C1=O)NC1CCOC(C2CC2)C1` (stereo not shown) [Example 24, 2-(6-bromo-1-oxo-spiro[3H-isoquinoline-4,1′-cyclopropane]-2-yl)-N-(2-cyclopropyltetrahydropyran-4-yl)acetamide], the IC50 by setting is: under setting [1], below 10000 nM; under setting [2], 7170 nM.

`O=C(CN1CC2(CC2)c2cc(Br)ccc2C1=O)Nc1nc2c(Cl)cccn2n1` [Example 429, 2-(6-bromo-1-oxospiro[3H-isoquinoline-4,1′-cyclopropane]-2-yl)-N-(8-chloro-[1,2,4]triazolo[1,5-a]pyridin-2-yl)acetamide]: the IC50 under setting [2] worked out at 1660 nM.

`N#Cc1cnc(NC(=O)CN2C[C@@]3(C[C@@H]3F)c3c(ccc(Br)c3F)C2=O)nc1` (single isomer, unassigned) [Example 221, 2-[(2′s,4r)-6-bromo-2′,5-difluoro-1-oxospiro[3H-isoquinoline-4,1′-cyclopropane]-2-yl]-N-(5-cyanopyrimidin-2-yl)acetamide]: the IC50 under setting [1] is below 10000 nM and the IC50 under setting [2] came to 14 nM.

On to `O=C(CN1CC2(CC2)c2c(ccc(Br)c2Cl)C1=O)Nc1ncc(F)cn1` [Example 83, 2-(6-bromo-5-chloro-1-oxospiro[3H-isoquinoline-4,1′-cyclopropane]-2-yl)-N-(5-fluoropyrimidin-2-yl)acetamide], for which the IC50 under setting [1] is below 10000 nM and the IC50 under setting [2] came out at 521 nM.

Turning to `O=C(CN1CC2(CC2)c2cc(Br)ccc2C1=O)Nc1nc2cc(Cl)ccn2n1` [Example 261, 2-(6-bromo-1-oxospiro[3H-isoquinoline-4,1′-cyclopropane]-2-yl)-N-(7-chloro-[1,2,4]triazolo[1,5-a]pyridin-2-yl)acetamide], the IC50 is, setting by setting: under setting [1], below 10000 nM; under setting [2], 224 nM.

With `O=C(CN1CC2(CC2)c2cc(Br)ccc2C1=O)N[C@@H]1C[C@H]2CC[C@@H]1O2` (stereo in doubt) [Example 17, 2-(6-bromo-1-oxospiro[3H-isoquinoline-4,1′-cyclopropane]-2-yl)-N-[(1S,2R,4R)-7-oxabicyclo[2.2.1]heptan-2-yl]acetamide], the IC50 by setting is: under setting [1], below 10000 nM; under setting [2], 4190 nM.

Consider `CCc1ccc2c(c1)C1(CC1)CN(CC(=O)Nc1ncc(F)cn1)C2=O` [Example 314, 2-(6-ethyl-1-oxospiro[3H-isoquinoline-4,1′-cyclopropane]-2-yl)-N-(5-fluoropyrimidin-2-yl)acetamide], for which the IC50 under setting [2] was found to be 784 nM.

As to `O=C(CN1CC2(CC2)c2c(ccc(Cl)c2F)C1=O)Nc1ncc(F)cn1` [Example 98, 2-(6-chloro-5-fluoro-1-oxospiro[3H-isoquinoline-4,1′-cyclopropane]-2-yl)-N-(5-fluoropyrimidin-2-yl)acetamide], the IC50 is below 10000 nM under setting [1] and 349 nM under setting [2].

With `N#Cc1cnc(NC(=O)CN2C[C@]3(C[C@H]3F)c3cc(C4CC4)ccc3C2=O)nc1` [Example 233], the IC50 is, setting by setting: under setting [1], below 10000 nM; under setting [2], 45 nM.

Consider `O=C(CN1C[C@@]2(C[C@@H]2F)c2c(ccc(Br)c2F)C1=O)Nc1ncccn1` (single isomer, unassigned) [Example 224, 2-[(2′s,4r)-6-bromo-2′,5-difluoro-1-oxospiro[3H-isoquinoline-4,1′-cyclopropane]-2-yl]-N-pyrimidin-2-ylacetamide], for which the IC50 by setting is: under setting [1], below 10000 nM; under setting [2], 49 nM.

`Cc1cnc(NC(=O)CN2C[C@@]3(C[C@@H]3F)c3c(ccc(Br)c3F)C2=O)nc1` (single isomer, unassigned) [Example 225, 2-[(2′s,4r)-6-bromo-2′,5-difluoro-1-oxospiro[3H-isoquinoline-4,1′-cyclopropane]-2-yl]-N-(5-methylpyrimidin-2-yl)acetamide]: the IC50 runs as follows: under setting [1], below 10000 nM; under setting [2], 19 nM.

Consider `O=C(CN1CC2(CC2)c2cc(Br)ccc2C1=O)Nc1ccc(C(F)F)cn1` [Example 195, 2-(6-bromo-1-oxospiro[3H-isoquinoline-4,1′-cyclopropane]-2-yl)-N-[5-(difluoromethyl)pyridin-2-yl]acetamide], for which the IC50 under setting [1] is below 10000 nM and the IC50 under setting [2] turned out to be 1010 nM.

`O=C(CN1CC2(CC2)c2cc(Br)ccc2C1=O)Nc1nccn2cnnc12` [Example 350, 2-(6-bromo-1-oxospiro[3H-isoquinoline-4,1′-cyclopropane]-2-yl)-N-([1,2,4]triazolo[4,3-a]pyrazin-8-yl)acetamide]: the IC50 under setting [2] amounted to 3590 nM.

With `O=C(CN1C[C@@]2(C[C@@H]2F)c2c(ccc(Br)c2F)C1=O)Nc1ncc(Cl)cn1` (single isomer, unassigned) [Example 222, 2-[(2′s,4r)-6-bromo-2′,5-difluoro-1-oxospiro[3H-isoquinoline-4,1′-cyclopropane]-2-yl]-N-(5-chloropyrimidin-2-yl)acetamide], the IC50 is below 10000 nM under setting [1] and 11 nM under setting [2].

Regarding `CC1(O)CC(NC(=O)CN2C[C@@]3(C[C@@H]3F)c3cc(C(F)(F)F)ccc3C2=O)C1` (single isomer, unassigned) [Example 327, N-(3-cis-hydroxy-3-methylcyclobutyl)-2-[(2′s,4r)-2′-fluoro-1-oxo-6-(trifluoromethyl)spiro[3H-isoquinoline-4,1′-cyclopropane]-2-yl]acetamide], the IC50 under setting [3] was above 1000 nM.

On to `C[C@H]1C[C@@]12CN(CC(=O)Nc1ncc(F)cn1)C(=O)c1ccc(Br)cc12` (single isomer, unassigned) [Example 282, 2-[(2′s,4r)-6-bromo-2′-methyl-1-oxospiro[3H-isoquinoline-4,1′-cyclopropane]-2-yl]-N-(5-fluoropyrimidin-2-yl)acetamide], for which the IC50 is below 10000 nM (IL-1β secretion, PMA-differentiated THP-1 cells, LPS then nigericin stimulation, ELISA read at 450 nm, read-out: Activity) and 1050 nM under setting [3].
